Results as given in US20030211075A1 (priority 2001, published 2003).

How the values were obtained:
[1] = test system: thrombin-antithrombin-complexes (TAT), antithrombin III (ATIII); experiment: Coagulation parameters in plasma three days after treatment; assay type: in vivo, mouse; settings: tTF alone; plasma three days after i.v. treatment
[2] = test system: 2F2B mouse endothelial cells; experiment: Binding of tTF to endothelial cells (FACS, cell bound coagulation assay); assay type: cell-based
Method: Cells were washed and coagulation factor mix (as described above) was added. S2765 substrate was added and Factor Xa generation was measured as described above.
2F2B cells were stimulated with LPS (20 μg/ml) or TNFα (500 U/ml) for 4 h at 37° C. […] Fluorescent cells were detected on a flow cytometer (Becton Dickinson, San Jose, Calif.).

[3] = test system: C1300 Muγ mouse neuroblastoma; experiment: C1300 (Muγ) tumor model, coaguligand and tTF: thrombosis and anti-tumor effects; assay type: in vivo
[4] = test system: L540 human Hodgkin's disease tumors; experiment: Treatment of L540rec tumor-bearing SCID mice with tTF and/or endotoxin, tumor tissue necrosis by densitometry; assay type: in vivo, mouse; settings: for % tumor necrosis: tTF alone (4 μg; 4 μg or 16 μg), no endotoxin, three days after i.v. treatment; for anti-tumor effect: tTF alone
Method: For in vivo studies, a metastasizing mouse model for human Hodgkin's lymphoma was used. 1×10^7 L540rec cells were injected subcutaneously into the right flank of SCID mice resulting in a subcutaneous tumor with lymph node metastases in the regional lymph node stations. Subcutanous tumors were measured with a caliper in three perpendicular directions a, b, and c, and volumes calculated according to the formula V=π/6×a×b×c.
Treatment was initiated when subcutaneous tumors reached a size of 150 to 300 μl. Reagents were administered into the lateral tail vein.
(§1) Mice were closely observed after treatment for clinical signs of toxicity and clinical status was documented at defined time points (5 minutes, 10 minutes, 15 minutes, 30 minutes. 1 hour. 2 hours, 24 hours, 48 hours, 72 hours). Blood samples were taken from the tail vein at 1 hour, 2 hours and 24 hours to measure TNFα blood levels. Three days after treatment, the mice were anesthetized, blood samples were taken from the vena cava for coagulation tests, and an autopsy was performed to document any changes in gross pathology. Tumors, lymph node metastases and the major normal organs (heart, lung, brain, liver, kidney, colon, spleen, pancreas) were harvested and prepared for histological analysis.
(§2) Tissue samples harvested at the time of autopsy were fixed in 3% NBF (normal buffered formalin) and embedded in paraffin wax. Tissue blocs were cut, dewaxed and stained with hematoxilin and eosin (H&E). Tissue sections were analyzed on a light microscope by two independent investigators and histological findings were documented. Tumor sections with necrotic areas were scanned with a GS-700 imaging densitometer (Biorad, Hercules, Calif.) and areas of necrosis were calculated as % of total section area. Statistical Analysis was performed using SPSS software (SPSS Science Software, Erkrath, Germany) applying the Mann-Whitney-U-test for ungrouped data.

[5] = test system: H460 human non-small cell lung carcinoma; experiment: Anti-tumor effects, H460; assay type: in vivo, mouse; settings: second treatment at 900 mm^3
Method: The tumor test systems were: i) L540 human Hodgkin's disease tumors growing in SCID mice; ii) C1300 Muγ (interferon-secreting) neuroblastoma growing in nu/nu mice; iii) H460 human non-small cell lung carcinoma growing in nu/nu mice. To establish solid tumors, 1.5×10^7 tumor cells were injected subcutaneously into the right anterior flank of SCID or BALB/c nu/nu mice (Charles River Labs., Wilmingham, Mass.). When the tumors had grown to various diameters, mice were assigned to different experimental groups, each containing 4 to 9 mice.
Other mice received equivalent quantities of bispecific antibody alone. The injections were performed over ˜45 seconds into one of the tail veins, followed by 200 μl of saline. The infusions were repeated six days later. Perpendicular tumor diameters were measured at regular intervals and tumor volumes were calculated.

A20 lymphoma cells = experiment: In vitro coagulation assay on A20 cells; assay type: cell-based, mouse
TNFα = TNFα serum levels in treated animals; assay type: in vivo, mouse; settings: tTF containing no endotoxin (n=6), 1, 2 and 24 hours
Method: as §1
TNFα levels in serum were determined using the Quantikine-M kit (R&D Systems, Minneapolis, Minn.) according to the manufacturer's instructions.

F9 sarcoma = F9 sarcoma mouse model, tumor tissue necrosis; assay type: in vivo; settings: tTF 4 μg, endotoxin 0.5 μg; three days; spontaneous necrosis 40-50%
Method: 1×10^7 F9 sarcoma cells were injected subcutaneously into the right flank of balb/c nude mice. Subcutanous tumors were measured with a caliper in three perpendicular directions a, b, and c and volumes calculated according to the formula V=π/6×a×b×c. Treatment was initiated when subcutaneous tumors reached a size of 150 to 300 μl.
Reagents were administered into the lateral tail vein.
Mice were closely observed after treatment for clinical signs of toxicity and clinical status was documented at defined time points. Three days after treatment, mice were sacrificed and tumors were harvested. Paraffin embedded tissues were stained with hematoxilin and eosin (H&E). Tissue sections were analyzed on a light microscope by two independent investigators and histological findings were documented. Tumor sections with necrotic areas were scanned with a GS-700 imaging densitometer (Biorad, Hercules, Calif.) and areas of necrosis were calculated as % of total section area.

immobilized tTF = biological target: T1, immobilized tTF (Homo sapiens, UniProt P13726); experiment: Real time binding of tTF to immobilized tTF (surface plasmon resonance); settings: tTF 30 μg/ml alone or preincubated with endotoxin or factor VIIa
T1 construct: amino acid 1-219 of the mature protein; made in house; host or cells: E. coli

[6] = Clinical signs of toxicity and histology of normal organs in treated tumor-bearing mice; assay type: in vivo, mouse; settings: for Symptoms: tTF alone (4 μg i.v.), no endotoxin
Method: as §1, §2

[7] = test system: HT29 human colorectal carcinoma; experiment: HT29 xenograft, tumor growth and necrosis after tTF constructs and Factor VIIa; assay type: in vivo, mouse
[8] = test system: L540 human Hodgkin's tumors; experiment: Anti-VCAM-1•tTF coaguligand in L540 tumor-bearing mice; assay type: in vivo, mouse
Method: Before coaguligand injection, tumors were viable, having a uniform morphology lacking regions of necrosis. […] Within four hours of coaguligand injection, 40-70% of blood vessels were thrombosed, despite the initial staining of only 20-30% of tumor blood vessels. The thrombosed vessels contained occlusive platelet aggregates, packed erythrocytes and fibrin. In several regions, the blood vessels had ruptured, spilling erythrocytes into the tumor interstitium.
The drug was administered i.v. 3 times at intervals of 4 days.

T1 sequence (P13726 33-251): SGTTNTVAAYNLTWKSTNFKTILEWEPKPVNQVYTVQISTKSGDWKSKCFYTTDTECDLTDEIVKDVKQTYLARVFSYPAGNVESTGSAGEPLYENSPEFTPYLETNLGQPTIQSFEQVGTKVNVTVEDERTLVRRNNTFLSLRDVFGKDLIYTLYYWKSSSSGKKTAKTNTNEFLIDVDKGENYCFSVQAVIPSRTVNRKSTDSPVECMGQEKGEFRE

Substance: tTF: extracellular domain of the mature Tissue Factor protein (amino acid 1-219), recombinant truncated human Tissue Factor
- TAT [1]: 25.4 ng/mL
- binding to endothelial cells expressing tissue factor [2]: no binding
- thrombosis of tumor vessels ([3]; 24 hours after injection of tTF219): practically all vessels in all regions of the tumor were thrombosed
- thrombi or morphological abnormalities in normal organs ([3]; paraffin sections 30 minutes to 24 hours after administration): neither thrombi, nor histological or morphological abnormalities were visible
- effect on tumor vessels ([3]; small (<500 mm^3) tumors): largely unaffected
- tumor growth versus antibodies or saline alone ([3]; tTF alone or mixed with control bispecific antibodies): grew significantly more slowly
- % tumor necrosis [4]: 0%
- % tumor necrosis ([4]; listed as TTF): 4%
- % tumor necrosis ([4]; listed as endotoxin-free tTF): 0%
- anti-tumor effect ([4]; 4 μg to 16 μg): no anti-tumor effect
- anti-tumor effect ([4]; 100 μg): anti-tumor effects begin to appear
- tumor volume after second treatment [5]: 550 mm^3
- increase in coagulation-inducing potency (A20 lymphoma cells; 0.1 nM Factor VIIa): 2-5 fold
- plasma coagulation time (A20 lymphoma cells; 10^−10 M tTF219, 13.5 nM Factor VIIa): 20 s
- plasma coagulation time (A20 lymphoma cells; 10^−10 M tTF219, absence of Factor VIIa): 60 s
- concentration at which plasma coagulated in 50 seconds (A20 lymphoma cells; localized on A20 cells via bispecific antibody B21-2/10H10): 3 nM
- time to visible fibrin strands (A20 lymphoma cells; tTF bound to A20 cells by B21-2/10H10, mouse plasma, untreated cells 164 seconds): 36 s
- TNFα serum level (TNFα): could not be detected
- tumor tissue necrosis (F9 sarcoma): 45%
- binding to immobilized tTF (immobilized tTF): did not bind to or homodimerize with immobilized tTF
- histology of normal organs ([6]; light microscopy, three days after treatment): No histological abnormalities were seen
- Symptoms ([6]; listed as TTF): None
- Symptoms ([6]; listed as endotoxin-free tTF): no clinical signs of toxicity
- duration of discontinued growth after treatment ([7]; large (1200 mm^3) tumors): about 7 days
- average area of necrosis in tumor sections ([7]; mouse, in vivo, iv): some necrosis
- control reagents that caused thrombosis ([8]; equivalent quantities): None
- effect on tumor growth ([8]; i.v. 3 times at intervals of 4 days): did not affect tumor growth
